Broadly, the fraction unbound is the share of the substance not bound to proteins or other matrix.

Results on one compound are retold here after paper PMC10289985, “Brigatinib pharmacokinetics in patients with chronic hepatic impairment” (Investigational New Drugs, 2023).

Details of data set [1]: method as in PMID 32816246. The note with it: single oral 180 mg [14C]-brigatinib; cited from earlier work.
A short description of data set [2]: Plasma protein binding of brigatinib by rapid equilibrium dialysis of participants' plasma samples. It is filed as in vitro ADME, human. The following applies: for fraction unbound: human, plasma, oral, 90 mg, pooled 2, 8, 24 h postdose. As for the experimental part:
Blood samples were collected before brigatinib administration (predose) and at 0.5, 1, 1.5, 2, 2.5, 3, 4, 6, 8, 12, 24, 36, 48, 72, 96, 120, 144, 168, and 192 hours following brigatinib administration to measure brigatinib plasma concentrations. Samples to assess brigatinib plasma protein binding were collected at 2, 8, and 24 hours postdose.
Free fractions of brigatinib in plasma samples were determined as previously reported. Briefly, free brigatinib was separated from protein-bound brigatinib by rapid equilibrium dialysis of plasma samples against warm (37° C) phosphate-buffered saline using the Thermo Scientific Single-Use Rapid Equilibrium Dialysis kit (Thermo Fisher Scientific, Waltham, MA) according to the manufacturer’s specifications. […] After incubation, samples were analyzed for brigatinib concentrations using liquid chromatography with tandem mass spectrometry as previously reported using a dual-range assay with a lower limit of quantitation of 0.100 ng/mL and an upper limit of quantitation of […].
The PK-evaluable population was defined as participants who received the single dose of brigatinib, had no major protocol deviations that affected the PK analyses, and had sufficient data to calculate PK parameters. Individual participant brigatinib plasma concentration-time profiles were analyzed via noncompartmental analysis using Phoenix WinNonLin version 6.4 (Certara, Inc., Princeton, NJ) to calculate plasma PK parameters. Plasma PK parameters calculated for brigatinib included maximum observed plasma concentration (Cmax), time to first maximum observed plasma concentration (Tmax), area under the plasma concentration-time curve from time 0 to the time of the last measurable concentration (AUC0−last), area under the plasma concentration-time curve from time 0 to infinity (AUC0−∞), terminal elimination half-life (t1/2), apparent oral clearance (CL/F), and apparent volume of distribution during the terminal disposition phase (Vz/F). The fraction of unbound brigatinib in plasma was calculated using the following formula: % free (unbound) = [free brigatinib concentration measured in buffer after dialysis] / [total brigatinib concentration measured in plasma] × 100. Unbound brigatinib PK parameters were derived from the following formula (except for the unbound CL/F and unbound Vz/F, which were calculated as total CL/F or total Vz/F divided by the individual participant’s overall mean fraction unbound): unbound PK parameter = (PK parameter based on total concentrations) × (individual participant’s overall mean fraction unbound value).

On the set-up of data set [3]: method as in PMID 30570839. The note with it: versus fasted conditions; healthy participants; cited from earlier work.
On the set-up of data set [4]: method as in PMID 27836716, PMID 29915924. The note with it: cited from earlier work.
Data set [5] relates to cytochrome P450 (CYP) 2C8 and CYP3A4. On the set-up: method as in ref 13 = [13]; 13. Alunbrig [package insert] (2022) Takeda Pharmaceuticals America, Inc., Lexington, MA. The following applies: in vitro; cited from earlier work.
A further data set concerns CYP2C8. On the set-up: method as in PMID 31287236. The following applies: cited from earlier work.

SMILES strings stand for the structures. Where two headings read alike, the source gives them in different places.

Regarding `COc1cc(N2CCC(N3CCN(C)CC3)CC2)ccc1Nc1ncc(Cl)c(Nc2ccccc2P(C)(C)=O)n1` [brigatinib], the “administered dose recovered in the feces” value in data set [1] is given as “approximately 65%”. In addition, the “administered dose recovered in the urine” value in data set [1] was 25%. Moreover, the “fecal recovery as unchanged brigatinib” value in data set [1] is listed as 41%. Besides, in data set [1], the “urinary recovery as unchanged brigatinib” value is 86%. Moreover, the “concentration dependence of plasma protein binding” value in data set [2] (2, 8 and 24 h postdose within each hepatic function group) was “not concentration-dependent”. Also, the “mean fraction unbound, Child-Pugh C relative to healthy participants” value in data set [2] (Child-Pugh C vs healthy participants) was found to be 2.7 fold. Also, the fraction unbound in data set [2] (Child-Pugh A, mild hepatic impairment (n=6), read-out: mean fraction unbound (free) in plasma) is 0.111; in data set [2] (Child-Pugh A, read-out: pooled mean ± SD fraction unbound (converted)), 0.111; in data set [2] (Child-Pugh B, moderate hepatic impairment (n=6), read-out: mean fraction unbound (free) in plasma), 0.108; in data set [2] (Child-Pugh B, read-out: pooled mean ± SD fraction unbound (converted)), 0.108; in data set [2] (Child-Pugh C, severe hepatic impairment (n=6), read-out: mean fraction unbound (free) in plasma), 0.231; in data set [2] (Child-Pugh C, read-out: pooled mean ± SD fraction unbound (converted)), 0.231. Also, the fraction unbound in data set [2] (healthy participants, normal hepatic function (n=9), read-out: mean fraction unbound (free) in plasma) is 0.085; in data set [2] (healthy participants, read-out: pooled mean ± SD fraction unbound (converted)) it was 0.085. For the same compound, the “effect of a high-fat, high-calorie meal on total systemic exposure (AUC)” value in data set [3] is given as “no clinically meaningful effect”. Moreover, in data set [4], the “mean plasma terminal elimination half-life” value is “approximately 25 hours”. Besides, the metabolizing enzymes entry in data set [5] is “primarily metabolized by cytochrome P450 (CYP) 2C8 and CYP3A4”. In addition, in the data set with CYP2C8, the “effect of a strong CYP2C8 inhibitor on brigatinib systemic exposure” value is reported as “no clinically relevant effect”.
